Target: EP2 subtype of the human PGE2 receptor (hEP2 receptor) (Homo sapiens, UniProt P43116)
Experiment: cAMP antagonism test, human prostaglandin E2 (subtype EP2) receptor signal
Type: cell-based
In short: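 Cells (625000 cells/ml, mixed with cAMP-d2) were preincubated 20 min at RT with compound ([…]). They were then stimulated 60 min at RT with a 3× PGE2 solution (1.5 nM) in PBS-IBMX and lysed for 20 min. cAMP was read by HTRF as the 665/620 nm ratio ×10000, with antagonism seen as a rise in FRET signal.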

EP2 subtype of the human PGE2 receptor (hEP2 receptor), sequence (P43116 whole entry): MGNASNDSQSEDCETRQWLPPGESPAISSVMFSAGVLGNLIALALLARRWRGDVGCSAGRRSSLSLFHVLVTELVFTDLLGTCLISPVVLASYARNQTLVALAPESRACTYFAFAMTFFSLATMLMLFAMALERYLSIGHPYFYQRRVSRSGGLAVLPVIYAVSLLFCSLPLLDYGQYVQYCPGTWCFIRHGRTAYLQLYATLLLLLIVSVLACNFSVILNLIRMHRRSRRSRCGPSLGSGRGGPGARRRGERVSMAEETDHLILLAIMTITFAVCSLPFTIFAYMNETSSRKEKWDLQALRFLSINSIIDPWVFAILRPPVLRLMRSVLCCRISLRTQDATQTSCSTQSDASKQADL

IC50, > 50 nM:
COCCNC(=O)c1ccc2nn(CC3CCN(C(=O)c4ccc(-c5ccc(C(F)(F)F)nc5)cc4)CC3)cc2c1C [Example E187, N-(2-methoxyethyl)-4-methyl-2-[(1-{4-[6-(trifluoromethyl)pyridin-3-yl]benzoyl}-piperidin-4-yl)methyl]-2H-indazole-5-carboxamide]
COCCNC(=O)c1ccc2nn(CC3CCN(C(=O)c4ccc(-c5ccc(OC)nc5)cc4)CC3)cc2c1C [Example E188, N-(2-methoxyethyl)-2-({1-[4-(6-methoxypyridin-3-yl)benzoyl]piperidin-4-yl}methyl)-4-methyl-2H-indazole-5-carboxamide]
COCCNC(=O)c1ccc2nn(CC3CCN(C(=O)c4ccc(-c5ccc(F)cc5C)cc4)CC3)cc2c1C [Example E189, 2-({1-[(4′-fluoro-2′-methylbiphenyl-4-yl)carbonyl]piperidin-4-yl}methyl)-N-(2-methoxyethyl)-4-methyl-2H-indazole-5-carboxamide]
COCCNC(=O)c1ccc2nn(CC3CCN(C(=O)c4ccc(-c5ccc(C)nc5)cc4)CC3)cc2c1C [Example E190, N-(2-methoxyethyl)-4-methyl-2-({1-[4-(6-methylpyridin-3-yl)benzoyl]piperidin-4-yl}methyl)-2H-indazole-5-carboxamide]
COCCNC(=O)c1ccc2nn(CC3CCN(C(=O)c4ccc(-c5cccc(OC)n5)cc4)CC3)cc2c1C [Example E191, N-(2-methoxyethyl)-2-({1-[4-(6-methoxypyridin-2-yl)benzoyl]piperidin-4-yl}methyl)-4-methyl-2H-indazole-5-carboxamide]
COCCNC(=O)c1ccc2nn(CC3CCN(C(=O)c4ccc(-c5ccc(F)cc5OC)cc4)CC3)cc2c1C [Example E193, 2-({1-[(4′-fluoro-2′-methoxybiphenyl-4-yl)carbonyl]piperidin-4-yl}methyl)-N-(2-methoxyethyl)-4-methyl-2H-indazole-5-carboxamide]
COCCNC(=O)c1ccc2nn(CC3CCN(C(=O)c4ccc(-c5ccc(Cl)cc5OC)cc4)CC3)cc2c1C [Example E194, 2-({1-[(4′-chloro-2′-methoxybiphenyl-4-yl)carbonyl]piperidin-4-yl}methyl)-N-(2-methoxyethyl)-4-methyl-2H-indazole-5-carboxamide]
COCCNC(=O)c1ccc2nn(CC3CCN(C(=O)c4ccc(-c5cnc(C(F)(F)F)nc5)cc4)CC3)cc2c1C [Example E195, N-(2-methoxyethyl)-4-methyl-2-[(1-{4-[2-(trifluoromethyl)pyrimidin-5-yl]benzoyl}-piperidin-4-yl)methyl]-2H-indazole-5-carboxamide]
COCCNC(=O)c1ccc2nn(CC3CCN(C(=O)c4ccc(-c5ccc(Cl)cc5F)cc4)CC3)cc2c1C [Example E196, 2-({1-[(4′-chloro-2′-fluorobiphenyl-4-yl)carbonyl]piperidin-4-yl}methyl)-N-(2-methoxy-ethyl)-4-methyl-2H-indazole-5-carboxamide]
COCCNC(=O)c1ccc2nn(CC3CCN(C(=O)c4ccc(-c5ccc(F)cc5Cl)cc4)CC3)cc2c1C [Example E197, 2-({1-[(2′-chloro-4′-fluorobiphenyl-4-yl)carbonyl]piperidin-4-yl}methyl)-N-(2-methoxy-ethyl)-4-methyl-2H-indazole-5-carboxamide]
COCCNC(=O)c1ccc2nn(CC3CCN(C(=O)c4ccc(-c5cncc(Cl)c5)cc4)CC3)cc2c1C [Example E198, 2-({1-[4-(5-chloropyridin-3-yl)benzoyl]piperidin-4-yl}methyl)-N-(2-methoxyethyl)-4-methyl-2H-indazole-5-carboxamide]
COCCNC(=O)c1ccc2nn(CC3CCN(C(=O)c4ccc(-c5cncc(F)c5)cc4)CC3)cc2c1C [Example E199, 2-({1-[4-(5-fluoropyridin-3-yl)benzoyl]piperidin-4-yl}methyl)-N-(2-methoxyethyl)-4-methyl-2H-indazole-5-carboxamide]
COCCNC(=O)c1ccc2nn(CC3CCN(C(=O)c4ccc(-c5cncc(C(F)(F)F)c5)cc4)CC3)cc2c1C [Example E200, N-(2-methoxyethyl)-4-methyl-2-[(1-{4-[5-(trifluoromethyl)pyridin-3-yl]benzoyl}-piperidin-4-yl)methyl]-2H-indazole-5-carboxamide]
COCCNC(=O)c1ccc2nn(CC3CCN(C(=O)c4ccc(-c5ccc(C(C)(C)O)cc5)cc4)CC3)cc2c1C [Example E201, 2-[(1-{[4′-(2-hydroxypropan-2-yl)biphenyl-4-yl]carbonyl}piperidin-4-yl)methyl]-N-(2-methoxyethyl)-4-methyl-2H-indazole-5-carboxamide]
COCCNC(=O)c1ccc2nn(CC3CCN(C(=O)c4ccc(-c5cc(F)cc(F)c5)cc4)CC3)cc2c1C [Example E202, 2-({1-[(3′,5′-difluorobiphenyl-4-yl)carbonyl]piperidin-4-yl}methyl)-N-(2-methoxy-ethyl)-4-methyl-2H-indazole-5-carboxamide]
COCCNC(=O)c1ccc2nn(CC3CCN(C(=O)c4ccc(-c5ccc(F)cc5)c(C)c4)CC3)cc2c1C [Example E203, 2-({1-[(4′-fluoro-2-methylbiphenyl-4-yl)carbonyl]piperidin-4-yl}methyl)-N-(2-methoxyethyl)-4-methyl-2H-indazole-5-carboxamide]
COCCNC(=O)c1ccc2nn(CC3CCN(C(=O)c4ccc(-c5cc(F)cc(F)c5)c(C)c4)CC3)cc2c1C [Example E204, 2-({1-[(3′,5′-difluoro-2-methylbiphenyl-4-yl)carbonyl]piperidin-4-yl}methyl)-N-(2-methoxyethyl)-4-methyl-2H-indazole-5-carboxamide]
COCCNC(=O)c1ccc2nn(CC3CCN(C(=O)c4ccc(-c5cccnc5)c(C)c4)CC3)cc2c1C [Example E205, N-(2-methoxyethyl)-4-methyl-2-({1-[3-methyl-4-(3-pyridyl)benzoyl]piperidin-4-yl}-methyl)-2H-indazole-5-carboxamide]
COCCNC(=O)c1ccc2nn(CC3CCN(C(=O)c4ccc(-c5ccncc5)c(C)c4)CC3)cc2c1C [Example E206, N-(2-methoxyethyl)-4-methyl-2-({1-[3-methyl-4-(4-pyridyl)benzoyl]piperidin-4-yl}-methyl)-2H-indazole-5-carboxamide]
COCCNC(=O)c1ccc2nn(CC3CCN(C(=O)c4ccc(-c5ccccc5)c(C)c4)CC3)cc2c1C [Example E207, N-(2-methoxyethyl)-4-methyl-2-({1-[(2-methylbiphenyl-4-yl)carbonyl]piperidin-4-yl}-methyl)-2H-indazole-5-carboxamide]

From patent US9655887B2, “Pharmaceutical composition and the use thereof, and application regime of said pharmaceutical composition for on-demand contraception” (BAYER PHARMA AKTIENGESELLSCHAFT, priority 2013, dated 2017)
